Results on eight molecules are retold here after article PMC10439028, “SGLT5 is the renal transporter for 1,5-anhydroglucitol, a major player in two rare forms of neutropenia” (Cellular and Molecular Life Sciences: CMLS, 2023).

Where “and” joins values, the source holds several entries; their conditions need not be identical. Equal values may be shown once. Read-outs that look alike come from different tables or passages of the source.

Holding throughout (type): cell-based
In one data set the target is T1, human SGLT4 (Homo sapiens, UniProt Q2M3M2).
T1 construct: expressed in transfected cells
T1 sequence (Q2M3M2 1-681): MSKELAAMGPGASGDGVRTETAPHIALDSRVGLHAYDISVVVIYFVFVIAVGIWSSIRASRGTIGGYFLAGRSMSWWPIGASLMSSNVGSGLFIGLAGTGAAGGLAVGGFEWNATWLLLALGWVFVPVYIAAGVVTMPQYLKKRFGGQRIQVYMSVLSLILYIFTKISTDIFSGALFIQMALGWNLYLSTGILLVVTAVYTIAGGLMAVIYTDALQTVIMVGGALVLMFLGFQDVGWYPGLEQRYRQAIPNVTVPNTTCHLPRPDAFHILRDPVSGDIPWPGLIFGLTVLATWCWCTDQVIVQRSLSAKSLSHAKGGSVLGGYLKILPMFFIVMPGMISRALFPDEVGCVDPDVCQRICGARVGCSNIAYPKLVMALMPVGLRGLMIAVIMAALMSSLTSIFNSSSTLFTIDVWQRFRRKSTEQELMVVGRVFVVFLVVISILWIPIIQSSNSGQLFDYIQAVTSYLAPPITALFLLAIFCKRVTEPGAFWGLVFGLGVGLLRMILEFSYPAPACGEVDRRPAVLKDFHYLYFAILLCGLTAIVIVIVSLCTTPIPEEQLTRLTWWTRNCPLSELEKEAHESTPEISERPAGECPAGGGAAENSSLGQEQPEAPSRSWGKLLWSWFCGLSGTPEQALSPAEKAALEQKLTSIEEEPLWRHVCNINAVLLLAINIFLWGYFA
Nature of the data set: Inhibition of 10 µM radiolabelled mannose transport in HEK293T cells overexpressing human SGLT4. The note with it: for inhibition at 10000 µM: HEK-293T, read-out: hSGLT4 inhibition with 10 mM inhibitor. On the procedure: (§1) For a typical transporter experiment we proceeded as follows. […] To minimize cell loss during the various washing steps in the radioactive uptake experiments, the wells where the cells were seeded were previously coated with poly- D-lysine, which improved their adhesion to the plastic surface of the wells. For this, each well of the 24-well plates was treated with 200 µl of a 0.01% poly-L-lysine solution for 10 min, washed 3 times with 1 ml of sterilized water and left to dry for 2 h. Only then could the 24-well plates be seeded with the appropriate cell lines and cultured overnight at 37 °C in 5% CO2.
(§2) On day two, the radioactive uptake assay could be performed. The cell culture media was removed by aspiration and cells were incubated for 20 min at 37 °C and 5% CO2 with a basal medium (10 mM HEPES, pH 7.4, 1 mM CaCl2, 1 mM MgCl2, 2 mM KCl) containing 140 mM choline chloride to deplete intracellular […] ions. This was subsequently replaced with the uptake medium (basal medium + 140 mM NaCl, 25 μM cytochalasin B, 1 mg/ml BSA) containing either radioactive U-[^14C]-mannose (15,000 cpm/well) or 2-[^3H]-1,5-AG (30,000 cpm/well) and respectively, non-radioactive mannose or 1,5-AG, at the required concentration in the experiment. Importantly, when measuring the transport of mannose, the uptake media also contained 0.5 mM glucose. This resulted from the need to reduce the background transport of mannose in control HEK293T cells in order to optimize the transport assay for this sugar in our model cell lines. Consequently, after testing various inhibitors (Supplementary Fig. 1), 0.5 mM glucose + 25 µM cytochalasin B appeared as the best combination to decrease efficiently the endogenous transport of mannose in control cells without affecting the transport of mannose in model cell lines overexpressing SGLT4 and SGLT5. Therefore in the radioactive uptake assays for mannose, the uptake medium was: basal uptake medium + 140 mM NaCl, 25 μM cytochalasin B, 0.5 mM glucose and 1 mg/ml BSA to which we added U-[^12C + ^14C]-mannose as described above.
(§3) Once the uptake medium was added to the cells, the plates were incubated at 37 °C in 5% CO2 during the required time. […] In each experiment, the transport activities were calculated after subtracting a “blank” value, corresponding to the radioactivity in the appropriate control cells (HEK293T cells that were stably or transiently transfected with one of the parent plasmids pEF6/MycHisA, pEF6HisB, pUB82 or pUB83 with no inserted cDNA) that were analyzed in parallel.
(§4) The transport experiments to study the specificity of SGLT4 or SGLT5, were performed in the presence of 10 µM U-[^14C + ^12C]-mannose (for SGLT4) or 2-[^3H + ^1H]-1,5-AG (for SGLT5) and increasing concentrations of various sugars tested. The transport experiments to study the inhibition of empagliflozin, dapagliflozin or remogliflozin, on the transport of 1,5-AG by SGLT5 or its variants were performed in the presence of 10 µM 2-[^3H + ^1H]-1,5-AG and increasing concentrations of the various gliflozins tested.

The target of a further data set is T2, human SGLT5 (Homo sapiens, UniProt A0PJK1).
T2 construct: expressed in transfected cells
T2 sequence (A0PJK1 1-596): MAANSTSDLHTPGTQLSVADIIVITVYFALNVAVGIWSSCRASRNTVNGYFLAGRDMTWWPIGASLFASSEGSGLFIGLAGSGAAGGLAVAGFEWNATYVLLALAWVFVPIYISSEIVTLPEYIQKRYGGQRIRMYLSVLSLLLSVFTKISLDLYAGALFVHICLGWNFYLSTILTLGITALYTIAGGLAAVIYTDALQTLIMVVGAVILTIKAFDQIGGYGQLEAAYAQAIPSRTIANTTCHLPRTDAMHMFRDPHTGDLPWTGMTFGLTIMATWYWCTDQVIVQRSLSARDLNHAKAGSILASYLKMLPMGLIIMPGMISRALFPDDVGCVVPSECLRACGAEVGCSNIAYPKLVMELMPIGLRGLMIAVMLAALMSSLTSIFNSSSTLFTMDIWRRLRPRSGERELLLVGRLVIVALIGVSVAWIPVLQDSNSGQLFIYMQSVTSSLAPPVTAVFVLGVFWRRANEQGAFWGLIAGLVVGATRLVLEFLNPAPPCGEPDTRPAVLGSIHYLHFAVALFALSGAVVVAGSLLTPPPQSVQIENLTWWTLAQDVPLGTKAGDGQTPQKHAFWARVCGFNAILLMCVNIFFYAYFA
Nature of the data set: Inhibition of 10 µM radiolabelled 1,5-AG transport in HEK293T cells overexpressing human SGLT5. On the procedure: as §1, §2, §3, §4

Data set [1] has as its target T3, SGLT5-TM (S70N–E71I–L75H) (Homo sapiens, UniProt A0PJK1, E71I/L75H/S70N).
T3 construct: pUB83-hSGLT5-iso2 as well as the various SGLT5 mutants obtained were used to transduce HEK293T cells; expressed in transfected cells; host or cells: HEK293T, lentiviral transduction (pUB83)
The experiment in a line: Inhibition of 10 µM 1,5-AG transport by triple mutant SGLT5-TM (S70N-E71I-L75H). The note with it: versus wild-type SGLT5, competition experiments, Supplementary Fig. 7. On the procedure:
as §4
SGLT5 mutants were created using the quick-change site directed mutagenesis method that enables effective mutagenesis without subcloning of the amplified PCR products. Complementary primer pairs carrying the desired replacements (Supplementary Table 3) were designed using an online tool (https://www.agilent.com/store/primerDesignProgram.jsp). The PCR protocol was carried out following the manufacturer instructions regarding the KOD HOT Start polymerase kit (TOYOBO™, Novagen). The amplified DNA was cleaned-up from the reactions constituents using the GeneJET PCR purification Kit (Thermo Scientific™) and the size of the DNA fragment were verified by DNA agarose-gel electrophoresis. After eliminating the parental DNA by digesting the purified DNA with the DpnI restriction enzyme, the DNA fragments containing the appropriate changes were transformed in E. coli NEB Turbo competent cells (C2984H). Once colonies were obtained, plasmid DNA was finally amplified, purified and sequenced to verify that the required changes had been introduced and eliminate any PCR errors. Next, pUB83-hSGLT5-iso2 as well as the various SGLT5 mutants obtained were used to transduce HEK293T cells using the exact same protocol as described above to create model cell lines overexpressing the different SGLT5 transporters.
Supplementary Fig. 7: Substrate specificity of SGLT5 - impact of replacing specific and conserved substrate binding residues in human SGLT5 by the equivalent ones in […]
When shown, the IC50 values are derived from inhibition curves showing the transport activity of 1,5-AG by the indicated SGLT5 mutants. Values show the concentration needed of the various sugars to inhibit by 50% the transport activity of 10 µM 2-[1H+3H]-1,5-AG. When the inhibition was too weak to derive IC50 values, the inhibition of the transport of 1,5-AG with the indicated concentration of the inhibitor-sugar is shown. Of note, despite having a lower […]
µM). These apparently contradictory changes are not necessarily surprising: in the case of enzymes, there are multiple examples of mutations that, at the same time, increase the apparent affinity (decrease the Km) of an enzyme for its substrate while decreasing the Vmax.
Measurement of transport activities and the description of the structures of the various inhibitory sugars used are as in Fig. 3C. Data corresponds to n = 3 in at least 2 independent […]
(1 picture or pasted object on this page, not shown here)

Substrate in data set [2]: OC[C@H]1OC[C@H](O)[C@@H](O)[C@@H]1O
Nature of the data set: Radioactive uptake assay (saturation kinetics) in HEK293T cells expressing mouse SGLT5. The following applies: other: 30 min, Supplementary Fig. 4; pH 7.4; 37.0 °C. As to the method: as §1
On day two, the radioactive uptake assay could be performed. […]
Once the uptake medium was added to the cells, the plates were incubated at 37 °C in 5% CO2 during the required time. […] In each experiment, the transport activities were calculated after subtracting a “blank” value, corresponding to the radioactivity in the appropriate control cells (HEK293T cells that were stably or transiently transfected with one of the parent plasmids pEF6/MycHisA, pEF6HisB, pUB82 or pUB83 with no inserted cDNA) that were analyzed in parallel. […]
Supplementary Fig. 4: Transport activities for 1,5-anhydroglucitol and mannose of recombinant mouse SGLT4 and SGLT5 isoforms measured in HEK293T cells. […]

Where [3] appears, read: 10 mM inhibitor, substrate 10 μM mannose.
Setting [4] is: substrate 10 μM 1,5-AG, unlabelled sugars, Fig. 3C, read-out: hSGLT5 IC50.
Where [5] appears, read: 10 µM 2-[1H+3H]-1,5-AG, Fig. 5C, read-out: IC50 for SGLT5-mediated 1,5-AG transport (gliflozins).

T3 sequence (A0PJK1 whole entry S70N/E71I/L75H): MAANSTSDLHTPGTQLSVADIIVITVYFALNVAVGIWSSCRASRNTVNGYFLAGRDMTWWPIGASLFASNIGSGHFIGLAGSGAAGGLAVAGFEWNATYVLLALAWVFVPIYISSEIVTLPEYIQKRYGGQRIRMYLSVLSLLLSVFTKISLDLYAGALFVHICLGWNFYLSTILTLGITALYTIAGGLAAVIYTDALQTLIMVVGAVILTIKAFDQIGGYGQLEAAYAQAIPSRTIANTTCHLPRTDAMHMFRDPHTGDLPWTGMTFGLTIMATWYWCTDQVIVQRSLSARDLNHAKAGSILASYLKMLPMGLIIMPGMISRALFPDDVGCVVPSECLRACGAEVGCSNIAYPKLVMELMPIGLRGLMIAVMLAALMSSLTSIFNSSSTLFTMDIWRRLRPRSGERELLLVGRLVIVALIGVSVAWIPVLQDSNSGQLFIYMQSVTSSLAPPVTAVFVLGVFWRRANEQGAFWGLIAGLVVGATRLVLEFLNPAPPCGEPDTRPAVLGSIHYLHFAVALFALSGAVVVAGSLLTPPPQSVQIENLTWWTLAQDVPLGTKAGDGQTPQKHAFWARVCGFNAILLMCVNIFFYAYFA

As to `O=C1CO[C@H](CO)[C@@H](O)[C@@H]1O` [1,5-AF, 1,5-anhydrofructose], on human SGLT4 (setting [3]), the inhibition (commonly the change of the read-out against control, counted positive when it falls) at 10000 µM was 44%. Besides, the 50% inhibitory concentration (IC50) (usually the concentration needed to halve the response being measured) on human SGLT5 (setting [4]) worked out at 179 µM.

As to `OC[C@H]1OC[C@@H](O)[C@@H](O)[C@@H]1O` [1,5-AM, 1,5-anhydromannitol], in data set [1], the “loss of affinity of SGLT5-TM” value was 250 fold. Further, at human SGLT4 (from Fig. 3C), the “less affinity of SGLT4 compared to SGLT5” value is listed as 200 fold. Also, at human SGLT4 (substrate 10 μM mannose, Fig. 3C, read-out: hSGLT4 IC50), the IC50 worked out at 2300 µM. In addition, at human SGLT5 (SGLT5), the “preference for 1,5-anhydromannitol over 1,5-AG, difference in Ki” value is 12 fold and the “preference of 1,5-anhydromannitol over mannose, difference in Ki” value was found to be 25 fold. Further, on human SGLT5 (setting [4]), the IC50 amounted to 13 µM.

Regarding `O=C(CO)[C@@H](O)[C@H](O)[C@H](O)CO` [Fructose, fructose], the “loss of affinity of SGLT5-TM” value in data set [1] is reported as “tenfold”. In addition, the inhibition at 10000 µM at human SGLT4 (setting [3]) came out at 33%. On human SGLT5, the IC50 came to 726 µM.

As to `OC[C@H]1OC(O)[C@H](O)[C@@H](O)[C@@H]1O` (some centres unmarked) [Glucose, glucose], the “gain of affinity of SGLT5-TM” value in data set [1] was 30 fold. For the same molecule, the inhibition at 10000 µM at human SGLT4 (setting [3]) is 20%. Also, the IC50 at human SGLT5 (setting [4]) was determined as 3650 µM.

`CCOc1ccc(Cc2cc([C@@H]3O[C@H](CO)[C@@H](O)[C@H](O)[C@H]3O)ccc2Cl)cc1` [dapagliflozin]: the IC50 on human SGLT5 (setting [5]) turned out to be 0.4 µM.

As to `Cc1c(Cc2ccc(OC(C)C)cc2)c(O[C@@H]2O[C@H](CO)[C@@H](O)[C@H](O)[C@H]2O)nn1C(C)C` [remogliflozin], the IC50 at human SGLT5 (setting [5]) was 0.26 µM and 0.27 µM.

Consider galactose, for which, in data set [1], the “gain of affinity of SGLT5-TM” value is listed as 30 fold. Further, the “hSGLT4 inhibition with 10 mM inhibitor” value at human SGLT4 (setting [3]) came to 39%. Besides, the “hSGLT5 inhibition with 10 mM inhibitor” value on human SGLT5 (10 mM inhibitor, substrate 10 μM 1,5-AG) is 10%.

B1: mouse SGLT5 (Mus musculus) (protein)
chain: MAGNSTGDAHVPGSQLSVTDIIVISVYFALNVAVGIWSACRANKNTVSGYFLAGRDMAWWPIGASLFASSEGSGLFVGLAGSGAAGGLAVAGFEWNATYVLLALAWVFVPIYISSEIVTLPEYIQKRFGGQRIRTYLSVLSLMLSVFTKISIDLYAGALFVHICLGWNFYLSTILTLAITALYTIAGGLATVIYTDALQTIIMVVGAVILAVKAFNQIGGYEQLEAAYAQAIPSRTIPNTTCHLPRADAMHMFRDPSTGDLPWTGMTFGLTIMATWYWCTDQVIVQRSLSARNLNHAKAGSILASYLKMLPMGLMIMPGMISRVLFPDDVGCVVPSECLRACGAEIGCSNIAYPKLVMELMPIGLRGLMIAVMMAALLSSLTSIFNSSSTLFTMDIWRQLRPSAGERELLLVGRLVIVVLIGVSVAWIPVLQGSNSGQLFIYMQSVTSSLAPPVTAIFILGIFWRRANEQGAFWGLMAGLVVGALRLVLEFLYPEPPCGQIDTRPAPLRSLHYLHFAIALFLLTCAVMAAGSLLSPPPQQRQIENLTWWTLAPNWSLGTKTGDGQTPQKRAFWARVCNVNAIFLMCVNIFFYAYFA
notes: expressed in transfected cells; host or cells: HEK293T
Take B1: the Km (usually the substrate concentration at which the rate is half of its maximum) in data set [2] is 500 µM.
